Measured values from patent US20150299188A1, “HETEROCYCLIC COMPOUND” (priority 2012, published 2015).

Test system: FLAP (5-lipoxygenase activating protein)
Experiment: In vitro binding test: displacement of [3H]-7-chloro-3-(5-((3-fluoropyridin-2-yl)methoxy)-2-methylphenyl)-3,4-dihydroquinazolin-2(1H)-one from Sf9 microsome fractions
Set-up: species or system human and mouse
Conditions: Sf9 microsome fractions expressing FLAP; 100% = radioligand binding with 10 μM sodium 3-(3-(tert-butylsulfanyl)-1-(4-chlorobenzyl)-5-isopropyl-1H-indol-2-yl)-2,2-dimethylpropanoate, 0% = DMSO; test compound concentration not given
How it was run: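 Sf9 microsomes expressing human or mouse FLAP (2 μg/mL) preincubated with compound 10 min at room temperature, then 120 nM tritiated quinazolinone ligand added for 60 min; buffer 100 mM Tris-HCl pH 7.5 with NaCl, EDTA, DTT, glycerol, Tween20. Bound ligand filtered and counted by scintillation; 10 μM indole propanoate defines 100% inhibition, DMSO 0%.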

Row | Compound | inhibitory rate (%)
1 | Cc1cc2c(cc1N1Cc3c(cc(-c4ccnn4C)nc3C3CC3)NC1=O)OC(c1ncccc1F)CC2 (stereo not shown) [Example 93, 5-cyclopropyl-3-(2-(3-fluoropyridin-2-yl)-6-methyl-3,4-dihydro-2H-chromen-7-yl)-7-(1-methyl-1H-pyrazol-5-yl)-3,4-dihydropyrido[4,3-d]pyrimidin-2(1H)-one] | 112%
2 | COC(=O)c1ccc2c(c1)NC(=O)N(c1cc(OCc3c(F)cccc3F)ccc1C)C2 [Example 171, methyl 3-(5-((2,6-difluorobenzyl)oxy)-2-methylphenyl)-2-oxo-1,2,3,4-tetrahydroquinazoline-7-carboxylate] | 99%
3 | Cc1cc2c(cc1N1Cc3c(cc(C4COC4)nc3C3CC3)NC1=O)OC(c1ncccc1F)CC2 (stereo not shown) [Example 42, 5-cyclopropyl-3-(2-(3-fluoropyridin-2-yl)-6-methyl-3,4-dihydro-2H-chromen-7-yl)-7-(oxetan-3-yl)-3,4-dihydropyrido[4,3-d]pyrimidin-2(1H)-one] | 116%
4 | Cc1cc2c(cc1N1Cc3c(cc(C4CN(C(=O)n5ccnc5)C4)nc3C3CC3)NC1=O)OC(c1ncccc1F)CC2 (stereo not shown) [Example 49, 5-cyclopropyl-3-(2-(3-fluoropyridin-2-yl)-6-methyl-3,4-dihydro-2H-chromen-7-yl)-7-(1-(1H-imidazol-1-ylcarbonyl)azetidin-3-yl)-3,4-dihydropyrido[4,3-d]pyrimidin-2(1H)-one] | 120%
5 | Cc1cc2c(cc1N1Cc3c(ccnc3C3CC3)NC1=O)OC(c1ncccc1F)CC2 (stereo not shown) [Example 25, 5-cyclopropyl-3-(2-(3-fluoropyridin-2-yl)-6-methyl-3,4-dihydro-2H-chromen-7-yl)-3,4-dihydropyrido[4,3-d]pyrimidin-2(1H)-one] | 99%
6 | O=C(c1cc2c(c(C3CC3)n1)CN(c1cc3c(cc1Cl)CCC(c1ncccc1F)O3)C(=O)N2)N1CC(F)C1 (stereo not shown) [Example 145, 3-(6-chloro-2-(3-fluoropyridin-2-yl)-3,4-dihydro-2H-chromen-7-yl)-5-cyclopropyl-7-((3-fluoroazetidin-1-yl)carbonyl)-3,4-dihydropyrido[4,3-d]pyrimidin-2(1H)-one] | 104%
7 | Cc1cc2c(c(C)n1)CN(c1cc3c(cc1Cl)CCC(c1ncccc1F)O3)C(=O)N2 (stereo not shown) [Example 63, 3-(6-chloro-2-(3-fluoropyridin-2-yl)-3,4-dihydro-2H-chromen-7-yl)-5,7-dimethyl-3,4-dihydropyrido[4,3-d]pyrimidin-2(1H)-one] | 106%
8 | Cc1noc(-c2cc3c(c(C4CC4)n2)CN(c2cc4c(cc2Cl)CCC(c2ncccc2F)O4)C(=O)N3)n1 (stereo not shown) [Example 121, 3-(6-chloro-2-(3-fluoropyridin-2-yl)-3,4-dihydro-2H-chromen-7-yl)-5-cyclopropyl-7-(3-methyl-1,2,4-oxadiazol-5-yl)-3,4-dihydropyrido[4,3-d]pyrimidin-2(1H)-one] | 111%

The remaining lines, values ahead:

Row | inhibitory rate (%) | Compound
9 | 98% | CCOC(=O)CCCCc1ccc(OCc2ncccc2F)cc1N1Cc2ccccc2NC1=O [Example 248, ethyl 5-(4-((3-fluoropyridin-2-yl)methoxy)-2-(2-oxo-1,4-dihydroquinazolin-3(2H)-yl)phenyl)pentanoate]
10 | 103% | COC(=O)c1ccc2c(=O)n(-c3cc(OCc4c(F)cccc4F)ccc3C)c(=O)[nH]c2c1 [Example 335, methyl 3-(5-((2,6-difluorobenzyl)oxy)-2-methylphenyl)-2,4-dioxo-1,2,3,4-tetrahydroquinazoline-7-carboxylate]
11 | 94% | Cc1ccc(OCc2ncccc2F)cc1-n1c(=O)[nH]c2ccc(Cl)cc2c1=O [Example 355, 6-chloro-3-(5-((3-fluoropyridin-2-yl)methoxy)-2-methylphenyl)quinazoline-2,4(1H,3H)-dione]
12 | 97% | COCc1ccc2c(c1)NC(=O)N(c1cc(OCc3c(F)cccc3F)ccc1C)C2 [Example 193, 3-(5-((2,6-difluorobenzyl)oxy)-2-methylphenyl)-7-(methoxymethyl)-3,4-dihydroquinazolin-2(1H)-one]
13 | 101% | Cc1ccc(OCc2ncccc2F)cc1N1Cc2c(ccnc2C2CC2)NC1=O [Example 320, 5-cyclopropyl-3-(5-((3-fluoropyridin-2-yl)methoxy)-2-methylphenyl)-3,4-dihydropyrido[4,3-d]pyrimidin-2(1H)-one]
14 | 92% | Cc1ccc(OCc2ncccc2F)cc1N1Cc2ccncc2NC1=O [Example 259, 3-(5-((3-fluoropyridin-2-yl)methoxy)-2-methylphenyl)-3,4-dihydropyrido[3,4-d]pyrimidin-2(1H)-one]
15 | 80% | CC(C)(O)c1ccc2c(c1)NC(=O)N(c1cc(OCc3c(F)cccc3F)ccc1CC1CCCCC1)C2 [Example 289, 3-(2-(cyclohexylmethyl)-5-((2,6-difluorobenzyl)oxy)phenyl)-7-(2-hydroxypropan-2-yl)-3,4-dihydroquinazolin-2(1H)-one]
16 | 107% | Cc1ccc(OCc2ncccc2F)cc1N1Cc2c(F)cccc2NC1=O [Example 281, 5-fluoro-3-(5-((3-fluoropyridin-2-yl)methoxy)-2-methylphenyl)-3,4-dihydroquinazolin-2(1H)-one]
17 | 106% | Cc1ccc(OCc2ncccc2F)cc1N1Cc2c(cccc2C(F)(F)F)NC1=O [Example 297, 3-(5-((3-fluoropyridin-2-yl)methoxy)-2-methylphenyl)-5-(trifluoromethyl)-3,4-dihydroquinazolin-2(1H)-one]
18 | 72% | O=C(NC1CC1)c1ccc(OCc2ncccc2F)cc1N1Cc2ccccc2NC1=O [Example 221, N-cyclopropyl-4-((3-fluoropyridin-2-yl)methoxy)-2-(2-oxo-1,4-dihydroquinazolin-3(2H)-yl)benzamide]
19 | 106% | CCc1ccc(OCc2ncccc2F)cc1N1Cc2ccccc2NC1=O [Example 220, 3-(2-ethyl-5-((3-fluoropyridin-2-yl)methoxy)phenyl)-3,4-dihydroquinazolin-2(1H)-one]
